Laboratory results: US10787651B2, “Bradyrhizobium monooxygenase and use thereof for preparation of chiral sulfoxide” (JIANGSU AOSAIKANG PHARMACEUTICAL CO., LTD., priority 2018, dated 2020)

Columns and labels:
Recombinant BoTEMO = assay: Asymmetric oxidation of thioethers by recombinant BoTEMO crude enzyme with glucose dehydrogenase recycling; format: biochemical, Bradyrhizobium oligotrophicum ECU1212; conditions: 25° C.
Method: The analysis is carried out with a high performance liquid chromatograph (HPLC) under the conditions of: a chiral OD-H column ([…], 5 μm particle size, Daicel), a mobile phase of n-hexane:isopropanol=93:7, a flow rate of 1 ml/min, and UV detection at 254 nm; or an AS-H column (250 mm×4.6 mm, 5 μm particle size, Daicel), a mobile phase of n-hexane:isopropanol=55:45, a flow rate of 0.5 mL/min, and UV detection at 254 nm.
To 0.5 ml potassium phosphate buffer (100 mmol/L, pH 9.0) was added 100 μL of crude enzyme solution of BoTEMO (the crude enzyme solution in accordance with the method of Example 5) and a crude enzyme solution of glucose dehydrogenase, and thioanisole, methanol, NADP^+ and glucose were added to the final concentration of 2 mmol/L, 10% (v/v), 0.2 mmol/L and 3.6 g/L, respectively. At 25° C. and 1000 rpm, the mixture was shaken for 1 h. After completion of reaction, 0.6 ml of ethyl acetate was added for extraction. The extract was dried over anhydrous sodium sulfate, and evaporated to remove the solvent. Then, the residue was dissolved in 0.5 ml of isopropanol. The mixture was analyzed in accordance with the method of Example 7 for measure the conversion of reaction and the ee value of product. The conversion of reaction was above 99%, and the ee value of product was above 99% (S).
To 0.5 ml of potassium phosphate buffer (100 mmol/L, pH 9.0) was added 100 μL crude enzyme solution of BoTEMO (the crude enzyme solution prepared in accordance with the method of Example 5) and a crude enzyme solution of glucose dehydrogenase, and omeprazole thioether, methanol, NADP^+ and glucose were added to the final concentrations of 0.2 mmol/L, 10% (v/v), 0.2 mmol/L and 3.6 g/L, respectively. At 25° C. and 1000 rpm, the mixture was shaken for 1 h. After completion of reaction, 0.6 ml of ethyl acetate was added for extraction. […] Then, the residue was dissolved in 0.5 ml isopropanol, and the solution was analyzed in accordance with the method of Example 7 for measuring the conversion of reaction and the ee value of product. […]
To 10 ml of potassium phosphate buffer (100 mmol/L, pH 9.0) was added 0.1 g of lyophilized crude enzyme powders of BoTEMO (crude enzyme powders prepared in accordance with the method of Example 5) and 0.02 g of lyophilized crude enzyme powder of glucose dehydrogenase (15 U/mg), and 1-3 g/L of omeprazole thioether/lansoprazole thioether/pantoprazole thioether/rabeprazle thioether/ilaprazole thioether, 10% (v/v) of methanol, 0.2 mmol/L of NADP^+ and 10 g/L of glucose were added. […] Then, the residue was dissolved in 0.5 ml of isopropanol, and the solution was analyzed in accordance with the method of Example 7 for measuring the conversion of reaction and the ee value of product. […]

Lysinibacillus = conditions: substrate loading 0.1 g/L, after 48 fermentation cultivation; cited from earlier work
[1] = tested on: Bradyrhizobium oligotrophicum ECU1212 resting cells; assay: Asymmetric oxidation of thioethers by whole resting cells; format: cell-based
Method: Optionally, resting cells harvested from the culture of Bradyrhizobium oligotrophicum ECU1212 are used to asymmetrically catalyze the oxidation of lansoprazole thioether to prepared (R)-lansoprazole under the conditions that the thioether substrate concentration is 0.1 g/L, the catalyst loading is 10 g/L, and the reaction is carried out at 30° C. under stirring at 180 rpm. The conversion rate of lansoprazole thioether can be up to 80%, and the optical purity can be up to 99% ee(R). it can be seen that the Bradyrhizobium oligotrophicum ECU1212 comprises functional enzyme(s) which serve to asymmetrically catalyze the oxidation and have a high catalytic conversion rate. Thus, it can solve the problem that the conventional bio-catalysts have low conversion rate in the asymmetric catalytic oxidation process. […]
To 100 ml Tris-HCl buffer (100 mmol/L, pH 9.0) was added 1 g of Bradyrhizobium oligotrophicum ECU1212 lyophilized cells (lyophilized cells prepared in accordance with Example 2), and thioanisole and methanol were added to a final concentration of 37 g/L, 10% (v/v). […] Then, the residue was dissolved in 0.5 ml isopropanol, and the solution was analyzed in accordance with the method of Example 7 for the conversion of reaction and the ee value of product. […]

BoTEMO-M2 = assay: Asymmetric oxidation of lansoprazole thioether by BoTEMO-M2; format: biochemical, Bradyrhizobium oligotrophicum ECU1212; conditions: BoTEMO-M2 powders in 100 ml, 3 g/L substrate, 25° C., 24 h
Method: (§1) To 100 ml Tris-HCl buffer (100 mmol/L, pH 9.0) was added lyophilized crude enzyme powders of BoTEMO-M2 and 0.2 g crude enzyme of glucose dehydrogenase. Lansoprazole thioether, methanol, NADP^+ and glucose were added to the final concentrations of 3 g/L, 10% (v/v), 0.2 mmol/L and 5.4 g/L, respectively. The reaction was stirred at 25° C. and 180 rpm for 24 h. When the lansoprazole thioether was asymmetrically catalytically oxidized to (R)-lansoprazole, the resultant conversion of the reaction was above 99%, and the ee value of product was above 99% (R).

BoTEMO-M1 = assay: Asymmetric oxidation of lansoprazole thioether by BoTEMO-M1; format: biochemical, Bradyrhizobium oligotrophicum ECU1212; conditions: 10 g/L substrate, 25° C., 24 h
Method: as §1, with “was added 1 g of lyophilized crude” for “was added lyophilized crude”, “powders of BoTEMO-M1 and 0.2” for “powders of BoTEMO-M2 and 0.2”, “concentrations of 10 g/L, 10%” for “concentrations of 3 g/L, 10%”, “mmol/L and 15 g/L, respectively.” for “mmol/L and 5.4 g/L, respectively.”
To 2 L Tris-HCl buffer (100 mmol/L, pH 9.0) was added 20 g lyophilized crude enzyme powders of BoTEMO-M1 and 4 g crude enzyme of glucose dehydrogenase. Lansoprazole thioether, methanol, NADP^+ and glucose were added to the final concentrations of 10 g/L, 10% (v/v), 0.2 mmol/L and 15 g/L, respectively. The reaction was stirred at 25° C. and 180 rpm for 24 h. When the lansoprazole thioether was asymmetrically catalytically oxidized to (R)-lansoprazole, the resultant conversion of reaction was above 99%, and the ee value of product was above 99% (R). Separation by extraction gave […] of the product (R)-lansoprazole, and the yield was 86%.

[2] = tested on: engineered cyclohexanone monooxygenase (CHMO); conditions: substrate loading 1.5 g/L, after 17 h; cited from earlier work

COc1ccc2[nH]c(SCc3ncc(C)c(OC)c3C)nc2c1 [omeprazole thioether]
conversion of reaction (Recombinant BoTEMO; 1 g crude enzyme powders in 100 ml, 1 g/L substrate, 3 h): above 99%
conversion of reaction (Recombinant BoTEMO; crude enzyme solution, 0.2 mmol/L substrate, 1 h): above 99%
conversion (Lysinibacillus): 77%

CSc1ccccc1 [thioanisole]
conversion of reaction (Recombinant BoTEMO; crude enzyme solution, 2 mmol/L substrate, 1 h): above 99%
conversion of reaction ([1]; 37 g/L substrate, 1 g lyophilized cells in 100 ml, 28° C., 24 h): above 99%

Cc1c(OCC(F)(F)F)ccnc1CSc1nc2ccccc2[nH]1 [lansoprazole thioether]
conversion of reaction (Recombinant BoTEMO; 0.2 g crude enzyme powders in 10 ml, 2 g/L substrate, 24 h): above 99%
conversion rate ([1]; substrate 0.1 g/L, catalyst loading 10 g/L, 30° C., 180 rpm): up to 80%
conversion of the reaction (BoTEMO-M2): above 99%
conversion of the reaction (BoTEMO-M1; 1 g BoTEMO-M1 powders in 100 ml): above 99%
conversion of reaction (BoTEMO-M1; 20 g BoTEMO-M1 powders in 2 L): above 99%
conversion [2]: 1.2%
